# Assay results published in patent US6410573B1, “2,5-substituted benzolsulfonylureas and thioureas methods for the production thereof use thereof and pharmaceutical preparations containing the same” (Aventis Pharma Deutschland GmbH, priority 1998, dated 2002).
# Tests used:
# [1] = system: papillary muscle of the guinea pig; experiment: Action potential duration (APD90) in the papillary muscle of the guinea pig, shortened by rilmakalim (HOE 234); format: cell-based; details: test substance 2 μmol/l, 60 min after its addition; rilmakalim (HOE 234) 1 μg/ml given 30 min before; starting values 165-191, after HOE 234 alone 18-37; 37° C., 1 Hz
# Source text: Test 1: Action potential duration in the papillary muscle of the guinea pig
# ATP deficiency states, such as are observed during ischemia in the cardiac muscle cell, lead to a reduction of the action potential duration. They are regarded as one of the causes of so-called reentry arrhythmias, which can cause sudden heart death. The opening of ATP-sensitive potassium channels by the lowering of ATP (adenosine triphosphate) is regarded as causing this.
# A standard microelectrode technique was employed for the measurement of the action potential in the papillary muscle of the guinea pig. For this guinea pigs of both sexes were killed by a blow to the head, the hearts were removed, the papillary muscles were separated out and suspended in an organ bath. The organ bath was irrigated with Ringer's solution (136 mmol/l of NaCl, 3.3 mmol/l of KCl, 2.5 mmol/l of CaCl2, 1.2 mmol/l of KH2PO4, 1.1 mmol/l of MgSO4, 5.0 mmol/l of glucose, 10.0 mmol/l of N-(2-hydroxyethyl)piperazine-N′-(2-ethanesulfonic acid) (HEPES), pH adjusted to 7.4 with NaOH) and aerated with 100% oxygen at a temperature of 37° C. The muscle was stimulated by means of an electrode using squarewave impulses of 1 V and 1 ms duration and a frequency of 1 Hz. The action potential was derived and recorded by means of a glass microelectrode inserted intracellularly, which is filled with 3 mol/l of KCl solution. The substance to be tested was added to the Ringer's solution in a concentration of 2 μmol/l. The action potential was amplified using an amplifier from Hugo Sachs (March-Hugstetten, Germany) and stored and analyzed by means of a computer. The duration of the action potential was determined at a degree of repolarization of 90% (APD90). The action potential reduction was produced by addition of a solution of the potassium channel opener rilmakalim (HOE 234) (W. Linz, E. Klaus, U. Albus, R. H. A. Becker, D. Mania, H. C. Englert, B. A. Schölkens, Arzneimittelforschung/Drug Research, 42 (II) (1992) 1180-1185) (rilmakalim concentration 1 μg/ml). 30 minutes after the administration of rilmakalim, the action potential duration APD90 was recorded. The test substance was then added and the action potential duration APD90, which was extended again, was recorded after a further 60 minutes. The test substances were added to the bath solution as stock solutions in propanediol.
# RINm5F cells = experiment: Membrane potential on isolated β cells (whole-cell patch clamp, RINm5F cells); format: cell-based; details: 1 μmol/l test substance, diaxozide 100 μmol/l in bath, 34±1° C., control potential before addition −70 to −78 mV
# Source text: Test 2: Membrane potential on isolated β cells
# The mechanism of action of the hypoglycemic sulfonylureas such as, for example, glibenclamide has been elucidated in broad outline. The target organ of the sulfonylureas is the β cell of the pancreas, where they contribute to the release of the hypoglycemic hormone insulin by influencing the electrical potential of the cell membrane. A hypoglycemic sulfonylurea such as, for example, glibenclamide brings about a depolarization of the cell membrane, which leads to a […] influx of calcium ions and as a consequence of this to insulin release. The extent ΔU of this depolarization of the cell membrane by the test substances was determined on insulin-secreting RINm5F cells, a pancreas tumor cell line. The potency of a compound in this model predicts the extent of the […] potential of this compound.
# Cell cultures of RINm5F cells: RINm5F cells were cultured at 37° C. in RPMI 1640 culture medium (Flow), to which 11 mmol/l of glucose, 10% (v/v) fetal calf serum, 2 mmol/l of glutamine and 50 μg/ml of gentamycin were added. The cells were inoculated onto petri dishes every 2 to 3 days and kept in a humidified atmosphere of […] and 5% CO2 at a temperature of 37° C. For the investigations, the cells were isolated by incubation (about 3 min) in a Ca^2+-free medium which contains 0.25% trypsin.
# Measuring method: in a Plexiglas chamber, isolated RINm5F cells were applied to an inverted microscope which was equipped with differential interference contrast optics. Under visual control (400× magnification), a fire-polished micropipette having an opening diameter of approximately 1 μm was placed onto the cell with the aid of a micromanipulator. By applying a slight underpressure to the interior of the patch pipette, a high electrical seal between the glass and cell membrane was first produced. Then, by increasing the underpressure, the membrane spot under the measuring pipette was torn off. In this whole-cell configuration, the cell potential was recorded with the aid of a patch clamp amplifier (L/M EPC 7, List, Darmstadt) and the whole-cell current was measured by applying a voltage ramp. […] Stock solutions of the test substances in a concentration of 100 mmol/l in DMSO and corresponding dilutions in an NaCl solution were prepared. DMSO on its own had no effect on the cell potential. In order to stabilize the cell potential, diaxozide (100 μmol/l), an opener for ATP-sensitive K^+ channels, was added to the bath solution in all experiments. All experiments were carried out at 34±1° C.
melting point [°C],Compound,"APD90 +HOE 234, 30 min., then +substance, 60 min. [1] [milliseconds]",ΔU (depolarization of the cell potential) (RINm5F cells) [mV]
178 to 179,"CCNC(=S)NS(=O)(=O)c1cc(CCNC(=O)c2cc(Cl)ccc2OC)ccc1-c1ccc(SC)cc1 [Example 10, 5-(2-(5-Chloro-2-methoxybenzamido)ethyl)-N-(ethylaminothiocarbonyl)-2-(4-methylthiophenyl)benzenesulfonamide]",,
185 to 188,"CNC(=S)NS(=O)(=O)c1cc(CCNC(=O)c2cc(Cl)ccc2OC)ccc1-c1ccc(OC)cc1 [Example 9, 5-(2-(5-Chloro-2-methoxybenzamido)ethyl)-2-(4-methoxyphenyl)-N-(methylaminothiocarbonyl)benzenesulfonamide]",,15
124 to 126,"C=CCc1ccc(CCNC(=O)c2cc(Cl)ccc2OC)cc1S(=O)(=O)NC(=O)NC [Example 18, 2-Allyl-5-(2-(5-chloro-2-methoxybenzamido)ethyl)-N-(methylaminocarbonyl)benzenesulfonamide]",,
160,"CNC(=O)NS(=O)(=O)c1cc(CCNC(=O)c2cc(Cl)ccc2OC)ccc1-c1ccccn1 [Example 17, 5-(2-(5-Chloro-2-methoxybenzamido)ethyl)-N-(methylaminocarbonyl)-2-(2-pyridyl)benzenesulfonamide]",,
224 to 225,"C#Cc1ccc(CCNC(=O)c2cc(Cl)ccc2OC)cc1S(=O)(=O)NC(=S)NC [Example 19, 5-(2-(5-Chloro-2-methoxybenzamido)ethyl)-2-ethynyl-N-(methylaminothiocarbonyl)benzenesulfonamide]",,
189 to 191,"CNC(=S)NS(=O)(=O)c1cc(CCNC(=O)c2cc(Cl)ccc2OC)ccc1-c1cccs1 [Example 12, 5-(2-(5-Chloro-2-methoxybenzamido)ethyl)-N-(methylaminothiocarbonyl)-2-(2-thienyl)benzenesulfonamide]",,5
145 to 146,"CNC(=S)NS(=O)(=O)c1cc(CCNC(=O)c2cc(Cl)ccc2OC)ccc1-c1ccco1 [Example 14, 5-(2-(5-Chloro-2-methoxybenzamido)ethyl)-2-(2-furyl)-N-(methylaminothiocarbonyl)benzenesulfonamide]",,7

# The next lines start with the compound.
Compound,melting point [°C],"APD90 +HOE 234, 30 min., then +substance, 60 min. [1] [milliseconds]",ΔU (depolarization of the cell potential) (RINm5F cells) [mV]
"CNC(=O)NS(=O)(=O)c1cc(CCNC(=O)c2cc(Cl)ccc2OC)ccc1-c1ccco1 [Example 15, 5-(2-(5-Chloro-2-methoxybenzamido)ethyl)-2-(2-furyl)-N-(methylaminocarbonyl)benzenesulfonamide]",,83,
"CCNC(=O)NS(=O)(=O)c1cc(CCNC(=O)c2cc(Cl)ccc2OC)ccc1-c1ccccc1 [Example 4, 5-(2-(5-Chloro-2-methoxybenzamido)ethyl)-N-(ethylaminocarbonyl)-2-phenylbenzenesulfonamide]",,81,
"COc1ccc(Cl)cc1C(=O)NCCc1ccc(S(=O)(=O)NC(=O)NC2CCCCC2)cc1 [Glibenclamide, reference compound]",,,47
"CNC(=S)NS(=O)(=O)c1cc(CCNC(=O)c2cc(Cl)ccc2OC)ccc1-c1ccccc1 [Example 1, 5-(2-(5-Chloro-2-methoxybenzamido)ethyl)-N-(methylaminothiocarbonyl)-2-phenylbenzenesulfonamide]",,134,6
"CNC(=S)NS(=O)(=O)c1cc(CCNC(=O)c2cc(Cl)ccc2OC)ccc1Sc1ccccc1 [Example 20, 5-(2-(5-Chloro-2-methoxybenzamido)ethyl)-N-(methylaminothiocarbonyl)-2-(phenylsulfanyl)benzenesulfonamide]",,139,
"CNC(=S)NS(=O)(=O)c1cc(CCNC(=O)c2cc(Cl)ccc2OC)ccc1-c1ccccn1 [Example 16, 5-(2-(5-Chloro-2-methoxybenzamido)ethyl)-N-(methylaminothiocarbonyl)-2-(2-pyridyl)benzenesulfonamide]",,153,
"CNC(=S)NS(=O)(=O)c1cc(CCNC(=O)c2cc(Cl)ccc2OC)ccc1-c1ccc(F)cc1 [Example 7, 5-(2-(5-Chloro-2-methoxybenzamido)ethyl)-2-(4-fluorophenyl)-N-(methyl-aminothiocarbonyl)benzenesulfonamide]",,71,
"CNC(=S)NS(=O)(=O)c1cc(CCNC(=O)c2cc(Cl)ccc2OC)ccc1-c1ccc(Cl)cc1 [Example 8, 5-(2-(5-Chloro-2-methoxybenzamido)ethyl)-2-(4-chlorophenyl)-N-(methyl-aminothiocarbonyl)benzenesulfonamide]",189 to 192,,
"CCNC(=S)NS(=O)(=O)c1cc(CCNC(=O)c2cc(Cl)ccc2OC)ccc1-c1ccccc1 [Example 3, 5-(2-(5-Chloro-2-methoxybenzamido)ethyl)-N-(ethylaminothiocarbonyl)-2-phenylbenzenesulfonamide]",168 to 170,,
"CNC(=O)NS(=O)(=O)c1cc(CCNC(=O)c2cc(Cl)ccc2OC)ccc1-c1cccs1 [Example 13, 5-(2-(5-Chloro-2-methoxybenzamido)ethyl)-N-(methylaminocarbonyl)-2-(2-thienyl)benzenesulfonamide]",,72,
